Results on 41 compounds are retold here after US12583858B2 (Genentech, Inc., priority 2015, dated 2026).

Each structure is given as a SMILES string. pEC50: −log10 of the molar value. A value given as a limit tells only on which side of the number the result lay.

For the assay, the target named is T1, TDO2 (Homo sapiens, UniProt P48775).
T1 construct: decreased levels of NFK in SW48 cells (high TDO expressing cells)
T1 sequence (P48775 whole entry): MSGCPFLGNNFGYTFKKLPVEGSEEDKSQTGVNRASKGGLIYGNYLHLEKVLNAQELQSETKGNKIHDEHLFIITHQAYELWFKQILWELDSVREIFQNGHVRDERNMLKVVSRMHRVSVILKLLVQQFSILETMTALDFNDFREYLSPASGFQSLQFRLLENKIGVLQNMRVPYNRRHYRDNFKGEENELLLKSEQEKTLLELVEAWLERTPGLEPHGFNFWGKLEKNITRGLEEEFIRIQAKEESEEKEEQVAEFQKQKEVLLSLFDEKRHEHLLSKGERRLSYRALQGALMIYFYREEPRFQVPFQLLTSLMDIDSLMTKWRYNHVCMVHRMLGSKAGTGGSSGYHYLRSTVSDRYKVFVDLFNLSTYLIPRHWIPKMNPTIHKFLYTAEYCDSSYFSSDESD
Kind of assay: TDO2 cell assay (NFK GreenScreen, SW48 cells). Format: cell-based. Particulars: SW48 cells (high TDO expressing), 200 uM tryptophan, 24 hours; Table 3; read-out: TDO2 Cell Fluor EC50.
Procedure: The NFK GreenScreen™ (NTRC, Netherlands) uses a specific chemical probe that binds to N-Formylkynurenine (NFK), a product of tryptophan catabolism facilitated by IDO or TDO and causes fluorescence at 510 nm when excited at 410 nm. […] The assay is multiplexed with Cell Titer-Glo® (Promega) to determine if compounds are cytotoxic. […] Cells are counted on a Vi-Cell (Beckman Coulter). SW48 cells are diluted to 1×10^6 cells/ml in assay media. A172 cells are diluted to 0.24×10^6 cells/ml in assay media. […] 5 ul of assay media containing 1.2 mM tryptophan are added to the SW48 cells for a final concentration of 200 uM tryptophan in each well. 5 ul of assay media containing 600 uM tryptophan and 600 ng/ml IFNγ are added to the A172 cells for a final concentration of 100 uM tryptophan and 100 ng/ml IFNγ in each well. The final DMSO concentration is 0.5%. Cell plates are placed at room temperature in a closed TC hood with the blower off to allow cells to settle for approximately 30 min. Plates are then moved to an incubator set at 37° C., 5% CO2 for 24 hours. After the 24 hour compound incubation, 8 ul of NFK green reagent is added to each well with a Multidrop™ Combi dispenser (Thermo Scientific). Plates are sealed and incubated at 37° C., 5% CO2 for 5 hours, then read on a PHERAstar® (BMG labtech). Data are analyzed by normalizing to DMSO and high inhibitor controls. After the plates have been read for NFK green, 25 ul of Cell Titer-Glo® (Promega) are added to each well, incubated for 15 minutes at room temperature, and read on the Envision (Perkin Elmer). Cell Titer-Glo data are analyzed by normalizing to the DMSO controls. Four-parameter curve fitting is used and EC50 data are reported.
In general, pEC50 refers to −log10 of the EC50, conventionally taken in molar units. In the case of `OC1CCCCC1C1c2ccccc2-c2cncn21` (single isomer, unassigned) [Example 03f], the pEC50 is 6.52.
The same measure for `O[C@@H]1CCC[C@@H]1[C@H]1c2ccccc2-c2cncn21` [Example 02c, (1R,2R)-2-((S)-5H-imidazo[5,1-a]isoindol-5-yl)cyclopentan-1-ol]: 6.52.
The result for `OC1CCCC1C1c2ccc(F)cc2-c2cncn21` (single isomer, unassigned) [Example 20c] reads 5.44.
On to `OC(C1CC1)C1c2ccccc2-c2cncn21` (single isomer, unassigned) [Example 52d], for which the negative-log EC50 (pEC50) is 5.70.
Turning to `O[C@@H]1COCC[C@H]1[C@@H]1c2c(F)cccc2-c2cncn21` (single isomer, unassigned) [Example 120c], the negative logarithm of the EC50 (pEC50) is 4.85.
The result for `N#Cc1cnn2c1[C@@H](O)[C@H]([C@H]1c3ccccc3-c3cncn31)CC2` (single isomer, unassigned) [Example 156f] reads < 4.60; that for `CCS(=O)(=O)N1CCC2(CCC(C3c4ccccc4-c4cncn43)C2O)CC1` (single isomer, unassigned) [Example 76e], 6.60.
The same measure for `OC1c2nccn2CCC1C1c2ccccc2-c2cncn21` (single isomer, unassigned) [Example 88f]: 5.24; for `CC(C)(C(N)=O)[C@@H](O)[C@H]1c2ccccc2-c2cncn21` [Example 155a, (R)-3-hydroxy-3-((R)-5H-imidazo[5,1-a]isoindol-5-yl)-2,2-dimethylpropanamide]: 6.48; for `OC1C(C2c3ccccc3-c3cncn32)CCC12CCOCC2` (single isomer, unassigned) [Example 68b]: 5.13.
The same measure for `OC1CCOCC1C1c2c(Cl)cccc2-c2cncn21` (single isomer, unassigned) [Example 69d]: < 4.60.
`OC1CCCCC1C1c2ccccc2-c2cncn21` (single isomer, unassigned) [Example 03c]: the negative logarithm of the EC50 (pEC50) is < 4.60.
For the compound `CC1(C)CCC(C2c3ccccc3-c3cncn32)C1O` (single isomer, unassigned) [Example 23f], the pEC50 was 5.57.
With `N#Cc1cnc2c(c1)CCC(C1c3ccccc3-c3cncn31)C2O` (single isomer, unassigned) [Example 107c], the pEC50 is 4.68.
The result for `NC(=O)c1ccc2c(c1)C(O)C(C1c3ccccc3-c3cncn31)CC2` (single isomer, unassigned) [Example 122c] reads 4.64; that for `Cc1cnn2c1C(O)C(C1c3ccccc3-c3cncn31)CC2` (single isomer, unassigned) [Example 159d], 5.43; that for `NS(=O)(=O)c1ccc2c(c1)C(O)C(C1c3ccccc3-c3cncn31)CC2` (single isomer, unassigned) [Example 105a], 4.92.
`OC1c2nccn2CCC1C1c2ccccc2-c2cncn21` (single isomer, unassigned) [Example 88d]: the pEC50 was 4.68.
`Nc1cc2n(n1)CCC(C1c3ccccc3-c3cncn31)C2O` (single isomer, unassigned) [Example 161c]: the pEC50 is 6.00.
Turning to `CS(=O)(=O)N1CCC(O)C(C2c3ccc(F)cc3-c3cncn32)C1` (single isomer, unassigned) [Example 118b], the pEC50 was < 4.60.
The result for `CCS(=O)(=O)N1CC(O)(CC2c3ccccc3-c3cncn32)C1` (single isomer, unassigned) [Example 108b] reads < 4.60.
The result for `OC1CCOCC1C1c2c(F)cccc2-c2cncn21` (single isomer, unassigned) [Example 73c] reads 6.47; that for `CC(C)(C)OC(=O)N1CC2(CC(C3c4ccccc4-c4cncn43)C2O)C1` (single isomer, unassigned) [Example 41b, tert-butyl 7-hydroxy-6-(5H-imidazo[1,5-b]isoindol-5-yl)-2-azaspiro[3.3]heptane-2-carboxylate], 6.10.
The same measure for `CS(=O)(=O)c1ccc2c(c1)CCC(C1c3ccccc3-c3cncn31)C2O` (single isomer, unassigned) [Example 36d]: 5.42.
On to `CC1(O)CCOCC1C1c2ccccc2-c2cncn21` (single isomer, unassigned) [Example 61c], for which the pEC50 was 5.04.
As for `OC1c2cc(C(F)F)nn2CCC1C1c2ccccc2-c2cncn21` (single isomer, unassigned) [Example 173b], the negative logarithm of the EC50 (pEC50) was 6.37.
The same measure for `O[C@@H]1CC2(COC2)[C@H]1[C@@H]1c2ccccc2-c2cncn21` [Example 87b, (5S,6R)-5-((R)-5H-imidazo[5,1-a]isoindol-5-yl)-2-oxaspiro[3.3]heptan-6-ol]: 6.52.
The result for `OC1COCCC1C1c2cc(F)ccc2-c2cncn21` (single isomer, unassigned) [Example 75-1a] reads 5.24.
As for `OC(C1CC1)C1c2ccccc2-c2cncn21` (single isomer, unassigned) [Example 52c], the pEC50 was < 4.60.
The same measure for `OC1CCC1C1c2ccccc2-c2cncn21` (single isomer, unassigned) [Example 01g]: 5.48; for `O=c1cccc2n1CCC(C1c3ccccc3-c3cncn31)C2O` (single isomer, unassigned) [Example 29d, 1-hydroxy-2-(5H-imidazo[5,1-a]isoindol-5-yl)-3,4-dihydro-1H-quinolizin-6(2H)-one]: 5.24.
The same measure for `NC(=O)c1ccc2c(c1)C(O)C(C1c3ccccc3-c3cncn31)CC2` (single isomer, unassigned) [Example 122b]: 4.92; for `Nc1ncc2c(n1)CCC(C1c3ccccc3-c3cncn31)C2O` (single isomer, unassigned) [Example 111a]: 6.27; for `OC1c2nccn2CCC1C1c2ccccc2-c2cncn21` (single isomer, unassigned) [Example 88h]: < 4.60.
The result for `CCS(=O)(=O)N1CC[C@H]([C@H]2c3ccccc3-c3cncn32)[C@@H](O)C1` (stereo in doubt) [Example 16d, (3R,4R)-1-(ethylsulfonyl)-4-((S)-5H-imidazo[5,1-a]isoindol-5-yl)piperidin-3-ol] reads < 4.60.
Take `NC(=O)c1ccc2c(c1)CCC(C1c3ccccc3-c3cncn31)C2O` (single isomer, unassigned) [Example 60d]: the pEC50 was 6.13.
The same measure for `OC1(C2c3ccccc3-c3cncn32)CC(F)(F)C1` (centres unmarked) [Example 50, 3,3-difluoro-1-(5H-imidazo[5,1-a]isoindol-5-yl)cyclobutan-1-ol]: 5.59; for `N#Cc1ccc2c(c1)CCC(C1c3ccccc3-c3cncn31)C2O` (single isomer, unassigned) [Example 62e]: 6.28; for `CCS(=O)(=O)N1CCC2(CC1)CC(C1c3ccccc3-c3cncn31)C2O` (single isomer, unassigned) [Example 114e]: 5.92.
The result for `OC1CC2(CC2)C1C1c2ccccc2-c2cncn21` (single isomer, unassigned) [Example 72d] reads 5.05; that for `O[C@H]1c2c(Cl)cnn2CC[C@H]1[C@H]1c2ccccc2-c2cncn21` [Example 160b, (4R,5S)-3-chloro-5-((S)-5H-imidazo[5,1-a]isoindol-5-yl)-4,5,6,7-tetrahydropyrazolo[1,5-a]pyridin-4-ol], 6.70.
